IC50 and EC50 data for 21 compounds are collected here from patent US20210284647A1, “N-(3-(IMIDAZO[1,2-B]PYRIDAZIN-3-YLETHYNYL)-4-METHYLPHENYL)-5-PHENYL-4,5-DIHYDRO-1H-PYRAZOLE-1-CARBOXAMIDE DERIVATIVE, AND PHARMACEUTICAL COMPOSITION CONTAINING SAME AS ACTIVE INGREDIENT FOR TREATING KINASE-RELATED DISEASES” (VORONOIBIO INC., priority 2018, published 2021).

The target of one experiment is T1, human GST-RIPK1 (Homo sapiens, UniProt Q13546).
T1 construct: GST; purchased signalchem
T1 sequence (Q13546 1-375 limits assumed): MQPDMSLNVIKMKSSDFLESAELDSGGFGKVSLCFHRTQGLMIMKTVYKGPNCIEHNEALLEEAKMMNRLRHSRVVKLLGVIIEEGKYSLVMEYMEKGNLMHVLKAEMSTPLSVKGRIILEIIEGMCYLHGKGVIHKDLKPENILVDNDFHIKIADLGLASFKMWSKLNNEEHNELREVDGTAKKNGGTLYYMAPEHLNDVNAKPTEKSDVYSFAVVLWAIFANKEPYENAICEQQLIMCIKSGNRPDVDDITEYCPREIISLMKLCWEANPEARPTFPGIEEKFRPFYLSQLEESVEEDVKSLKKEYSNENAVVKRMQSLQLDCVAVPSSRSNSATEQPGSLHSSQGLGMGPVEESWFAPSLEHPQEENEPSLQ
The experiment is described as follows: RIPK1 inhibitory activity (ADP-Glo kinase assay). In kind it is biochemical. Conditions: human GST-RIPK1 10 ng, ATP 50 uM, 25° C. for 4 hours, read-out: Enzyme IC50. How it is done:
The following experiment was performed to evaluate the inhibitory activity of the example compounds according to the present invention against RIPK1 (receptor-interacting serine/threonine protein kinase 1).
The example compound was reacted with the purified human GST-RIPK1 (1375, signalchem) enzyme to evaluate the enzyme inhibitory activity in the following manner. The composition of the reaction buffer used herein was as follows: 40 mM Tris-Hcl pH 7.4, 20 mM MgCl2, 0.5 mg/ml, BSA and 0.5 uM DTT. All the test materials were reacted in the reaction buffer. After reacting human GST-RIPK1 (1375, 10 ng), purified ATP (50 uM) and a specific substrate solution at 25° C. for 4 hours, the enzyme activity was confirmed using an in vitro ADP-Glo™ kinase assay (promega). Luminoscence was measured by reacting the enzyme activity reaction solution, ADP-Glo reaction solution, and enzyme activity detection solution at the ratio of 2:2:1. The degree of enzyme activity inhibition according to the treatment concentration of each compound was calculated based on the fluorescence of the enzyme activity of the solvent control not treated with the compound. At this time, the concentration of each compound inhibiting 50% of the enzyme activity was determined as IC50 (nM). IC50 of each compound was determined with three data sets and calculated using Prism (version 7.01, GraphPad) software.
On the technique in general: ADP-Glo first removes unused ATP, then detects ADP through luciferase.

In experiment [1] the test system is human Jurkat T cells deficient in FADD. Put plainly: Cell protection effect under apoptosis-inducing condition (TNF-α). In kind it is cell-based. The following applies: 40 ng of TNF-α, 50 hours, CellTiter-Glo, read-out: I2.I Cell EC50. How it is done:
The cell protection effect of the compounds according to the present invention under the condition of inducing apoptosis by TNF-α was confirmed by […]. An apoptosis inducing factor such as TNF-α was treated to induce apoptosis of human Jurkat T cells deficient in FADD, to which the example compound was treated, and the cell protection effect was confirmed through the following analysis. Jurkat T cells deficient in FADD were cultured using RPMI medium (Hyclone) containing 10% FBS. When performing the test, the cells were seeded in a 96-well plate containing a medium suitable for the cell line at the density of 10,000 cells/well, and cultured in a 37° C. 5% CO2 incubator for 24 hours. Then, each well was treated with 40 ng of TNF-α, and the compounds prepared in the above examples were each treated with a 3-fold concentration gradient with 1 μM as the highest concentration. As the solvent control, dimethyl sulfoxide (DMSO) was treated at the concentration of 0.05% (v/v), which was the same concentration as that used for the compound treatment. Then, the cells were cultured for 50 hours. To confirm the degree of viability of the cells, a mixture provided in CellTiter-Gloe Luminescent Cell Viability Assay Kit (Promega) was added to the culture medium of the cells, followed by further culture at 37° C. for 30 minutes. Then, luminescence fluorescence was measured. The degree of inhibition of apoptosis induction according to the treatment concentration of each compound was calculated based on the fluorescence of the solvent control cells not treated with the compound. At this time, the concentration of each compound inhibiting 50% was determined as EC50 (μM). EC50 of each compound was calculated using Prism (version 7.01, GraphPad) software.

What is called IC50 is the midpoint of a concentration-inhibition curve. What is called EC50 is the concentration needed to bring the measured effect to its halfway point.

Counter-ions that a name gives are not always drawn.

On to `O=C(Nc1cccc(C#Cc2cnc3cccnn23)c1)N1N=CCC1c1ccc2ccccc2c1` (stereo not drawn) [Example 40, N-(3-(imidazo[1,2-b]pyridazin-3-ylethynyl)phenyl)-5-(naphthalen-2-yl)-4,5-dihydro-1H-pyrazole-1-carboxamide], for which the half-maximal inhibitory concentration (IC50) at human GST-RIPK1 turned out to be 19 nM. In experiment [1], the EC50 was 12.4 nM.

As to `O=C(Nc1cccc(C#Cc2cnc3cccnn23)c1)N1N=CCC1c1cc2ccccc2cn1` (stereo not drawn) [Example 41, N-(3-(imidazo[1,2-b]pyridazin-3-ylethynyl)phenyl)-5-(isoquinolin-3-yl)-4,5-dihydro-1H-pyrazole-1-carboxamide], the IC50 on human GST-RIPK1 is 33 nM. Also, the EC50 in experiment [1] worked out at 64.6 nM.

As for `O=C(Nc1cccc(C#Cc2cnc3cccnn23)c1)N1N=CCC1C1CCCCC1` (stereo not drawn) [Example 42, 5-cyclohexyl-N-(3-(imidazo[1,2-b]pyridazin-3-ylethynyl)phenyl)-4,5-dihydro-1H-pyrazole-1-carboxamide], the IC50 at human GST-RIPK1 is 12.7 nM. Further, the EC50 in experiment [1] came to 1.5 nM.

On to `S=C(Nc1cccc(C#Cc2cnc3cccnn23)c1)N1N=CCC1c1ccccc1` (stereo not drawn) [Example 43, N-(3-(imidazo[1,2-b]pyridazin-3-ylethynyl)phenyl)-5-phenyl-4,5-dihydro-1H-pyrazole-1-carbothioamide], for which the IC50 on human GST-RIPK1 was determined as 277 nM. Further, in experiment [1], the EC50 was 6.7 nM.

On to `O=C(Nc1ccc(F)c(C#Cc2cnc3cccnn23)c1)N1N=CCC1c1ccccc1` (stereo not drawn) [Example 44, N-(4-fluoro-3-(imidazo[1,2-b]pyridazin-3-ylethynyl)phenyl)-5-phenyl-4,5-dihydro-1H-pyrazole-1-carboxamide 2,2,2-trifluoroacetate], for which the IC50 at human GST-RIPK1 was 18.1 nM. In addition, in experiment [1], the EC50 stood at 0.37 nM.

For `O=C(Nc1ccc(F)c(C#Cc2cnc3cccnn23)c1)N1N=CC[C@H]1c1ccccc1` [Example 45, (S)—N-(4-fluoro-3-(imidazo[1,2-b]pyridazin-3-ylethynyl)phenyl)-5-phenyl-4,5-dihydro-1H-pyrazole-1-carboxamide 2,2,2-trifluoroacetate], on human GST-RIPK1, the IC50 amounted to 8.8 nM. Moreover, the EC50 in experiment [1] turned out to be 0.09 nM.

Consider `O=C(Nc1ccc(F)c(C#Cc2cnc3cccnn23)c1)N1N=CC[C@@H]1c1ccccc1` [Example 46, (R)—N-(4-fluoro-3-(imidazo[1,2-b]pyridazin-3-ylethynyl)phenyl)-5-phenyl-4,5-dihydro-1H-pyrazole-1-carboxamide 2,2,2-trifluoroacetate], for which the IC50 at human GST-RIPK1 turned out to be 205 nM. Further, the EC50 in experiment [1] came out at 97.7 nM.

With `O=C(Nc1cc(C#Cc2cnc3cccnn23)ccc1F)N1N=CCC1c1ccccc1` (stereo not drawn) [Example 47, N-(2-fluoro-5-(imidazo[1,2-b]pyridazin-3-ylethynyl)phenyl)-5-phenyl-4,5-dihydro-1H-pyrazole-1-carboxamide 2,2,2-trifluoroacetate], the IC50 at human GST-RIPK1 was 50.1 nM. Moreover, in experiment [1], the EC50 is above 1000 nM.

Take `O=C(Nc1ccnc(C#Cc2cnc3cccnn23)c1)N1N=CCC1c1ccccc1` (stereo not drawn) [Example 48, N-(2-(imidazo[1,2-b]pyridazin-3-ylethynyl)pyridin-4-yl)-5-phenyl-4,5-dihydro-1H-pyrazole-1-carboxamide 2,2,2-trifluoroacetate]: on human GST-RIPK1, the IC50 is 3.4 nM. Besides, in experiment [1], the EC50 was found to be 1.4 nM.

In the case of `O=C(Nc1ccnc(C#Cc2cnc3cccnn23)c1)N1N=CC[C@H]1c1ccccc1` [Example 49, (S)—N-(2-(imidazo[1,2-b]pyridazin-3-ylethynyl)pyridin-4-yl)-5-phenyl-4,5-dihydro-1H-pyrazole-1-carboxamide 2,2,2-trifluoroacetate], the IC50 at human GST-RIPK1 was 1.9 nM. For the same compound, the EC50 in experiment [1] amounted to 0.3 nM.

Turning to `O=C(Nc1ccnc(C#Cc2cnc3cccnn23)c1)N1N=CC[C@@H]1c1ccccc1` [Example 50, (R)—N-(2-(imidazo[1,2-b]pyridazin-3-ylethynyl)pyridin-4-yl)-5-phenyl-4,5-dihydro-1H-pyrazole-1-carboxamide 2,2,2-trifluoroacetate], the IC50 on human GST-RIPK1 is above 1000 nM. Besides, in experiment [1], the EC50 is 197 nM.

As for `O=C(Nc1cncc(C#Cc2cnc3cccnn23)c1)N1N=CCC1c1ccccc1` (stereo not drawn) [Example 51, N-(5-(imidazo[1,2-b]pyridazin-3-ylethynyl)pyridin-3-yl)-5-phenyl-4,5-dihydro-1H-pyrazole-1-carboxamide 2,2,2--trifluoroacetate], the IC50 at human GST-RIPK1 was found to be 1.22 nM. For the same compound, the EC50 in experiment [1] was determined as 1.84 nM.

As for `O=C(Nc1cc(C#Cc2cnc3cccnn23)ccn1)N1N=CCC1c1ccccc1` (stereo not drawn) [Example 52, N-(4-(imidazo[1,2-b]pyridazin-3-ylethynyl)pyridin-2-yl)-5-phenyl-4,5-dihydro-1H-pyrazole-1-carboxamide 2,2,2-trifluoroacetate], the IC50 at human GST-RIPK1 came out at 775 nM. Moreover, the EC50 in experiment [1] is above 1000 nM.

Regarding `O=C(c1cccc(C#Cc2cnc3cccnn23)c1)N1N=CCC1c1ccccc1` (stereo not drawn) [Example 53, (3-(imidazo[1,2-b]pyridazin-3-ylethynyl)phenyl)(5-phenyl-4,5-dihydro-1H-pyrazol-1-yl)methanone 2,2,2-trifluoroacetate], on human GST-RIPK1, the IC50 came to 731 nM. Also, the EC50 in experiment [1] amounted to 975 nM.

As for `Cc1ccc(C(=O)N2N=CCC2c2ccccc2)cc1C#Cc1cnc2cccnn12` (stereo not drawn) [Example 54, (3-(imidazo[1,2-b]pyridazin-3-ylethynyl)-4-methylphenyl)(5-phenyl-4,5-dihydro-1H-pyrazol-1-yl)methanone 2,2,2-trifluoroacetate], on human GST-RIPK1, the IC50 came out at 32.6 nM. Further, in experiment [1], the EC50 is above 1000 nM.

In the case of `O=C(Nc1cccc(C#Cc2cnc3ccccn23)c1)N1N=CCC1c1ccccc1` (stereo not drawn) [Example 55, N-(3-(imidazo[1,2-a]pyridin-3-ylethynyl)phenyl)-5-phenyl-4,5-dihydro-1H-pyrazole-1-carboxamide], the IC50 at human GST-RIPK1 turned out to be 13.4 nM. Moreover, the EC50 in experiment [1] came to 1.6 nM.

`O=C(Nc1cccc(C#Cc2cnn3cccnc23)c1)N1N=CCC1c1ccccc1` (stereo not drawn) [Example 56, 5-phenyl-N-(3-(pyrazolo[1,5-a]pyrimidin-3-ylethynyl)phenyl)-4,5-dihydro-1H--pyrazole-1-carboxamide]: the IC50 on human GST-RIPK1 was determined as 30.5 nM. For the same compound, the EC50 in experiment [1] stood at 0.3 nM.

As for `O=C(Nc1cccc(C#Cc2cnc3cnccn23)c1)N1N=CCC1c1ccccc1` (stereo not drawn) [Example 57, N-(3-(imidazo[1,2-a]pyrazin-3-ylethynyl)phenyl)-5-phenyl-4,5-dihydro-1H-pyrazole-1-carboxamide], the IC50 on human GST-RIPK1 came to 23.8 nM. Further, the EC50 in experiment [1] came out at 0.3 nM.

On to `O=C(Nc1cccc(C#Cc2cnc3ncccn23)c1)N1N=CCC1c1ccccc1` (stereo not drawn) [Example 58, N-(3-(imidazo[1,2-a]pyrimidin-3-ylethynyl)phenyl)-5-phenyl-4,5-dihydro-1H-pyrazole-1-carboxamide], for which the IC50 on human GST-RIPK1 came out at 15 nM. Besides, in experiment [1], the EC50 stood at 3.6 nM.

As for `Nc1cccn2c(C#Cc3cccc(NC(=O)N4N=CCC4c4ccccc4)c3)cnc12` (stereo not drawn) [Example 59, N-(3-((8-aminoimidazo[1,2-a]pyridin-3-yl)ethynyl)phenyl)-5-phenyl-4,5-dihydro-1H-pyrazole-1-carboxamide hydrochloride], the IC50 on human GST-RIPK1 is 127 nM. The EC50 in experiment [1] is 17.6 nM.

Regarding `CC(=O)Nc1cccn2c(C#Cc3cccc(NC(=O)N4N=CCC4c4ccccc4)c3)cnc12` (stereo not drawn) [Example 60, N-(3-((8-acetamidoimidazo[1,2-a]pyridin-3-yl)ethynyl)phenyl)-5-phenyl-4,5-dihydro-1H-pyrazole-1-carboxamide], the IC50 on human GST-RIPK1 came to 64.1 nM. For the same compound, in experiment [1], the EC50 was found to be 0.4 nM.
